Data from paper PMC4738285 (Scientific Reports, 2016).

Assays:
[1] = test system: C. perfringens iota toxin on Vero cells; assay type: cell-based, African green monkey
[2] = test system: Ia of C. perfringens iota toxin; assay type: biochemical, Clostridium perfringens
[3] = test system: C. perfringens iota toxin on Vero cells; assay type: cell-based, African green monkey; remark: listed apart in the source
Hsp70 [4] = settings: read-out: dissociation constant; cited from earlier work
[5] = test system: iota toxin receptor binding on Vero cells; assay type: cell-based, African green monkey; settings: 4 °C, 30 min
HeLa cells [6] = assay type: cell-based, human
Hsp70 [7] = biological target: T1, Hsp70 (Homo sapiens, UniProt P0DMV8); assay: biochemical; set-up: made in house
Hsc70 [8] = biological target: T2, Hsc70 (Homo sapiens, UniProt P11142); assay: biochemical; assay type: biochemical; set-up: made in house
HT-29 = assay: cells; assay type: cell-based; settings: Homo sapiens, HT-29, 48 h, read-out: EC50 value
HeLa cells [9] = assay type: cell-based, human; remark: listed apart in the source
HeLa cells [10] = settings: human, 24 h
HeLa = assay: cells; assay type: cell-based; settings: Homo sapiens, 48 h, read-out: EC50 value
HeLa cells [11] = assay: cells; assay type: cell-based; settings: Homo sapiens; for EC50: read-out: EC50 cell survival, clonogenic assay; for IC50: read-out: IC50 survival, clonogenic assay
SH-SY5Y = assay: cells; assay type: cell-based; settings: Homo sapiens, 48 h, read-out: EC50 value
HEK-293 = assay: cells; assay type: cell-based; settings: Homo sapiens, HEK293, 48 h, read-out: EC50 value
Hsc70 [12] = biological target: T2, Hsc70; assay type: binding; set-up: endogenous in cells; host or cells: HeLa cell lysate; settings: HeLa cell lysate
HeLa cells [13] = assay type: cell-based, human; remark: listed apart in the source
Hsp70 [14] = biological target: T1, Hsp70; assay: biochemical
Hsp70 [15] = biological target: T1, Hsp70; assay type: biochemical; set-up: made in house; settings: concentrations up to 200 μM; 0.5 μM Hsp70, 1 mM ATP
Hsp70 [16] = biological target: T1, Hsp70; settings: ITC, 20 °C
HeLa cells [17] = assay type: cell-based, human; remark: listed apart in the source
Hsp70 [18] = biological target: T1, Hsp70; assay type: binding; set-up: made in house; settings: 500 nM Hsp70, 50 μM 1; five of six regions
Hsp70 [19] = biological target: T1, Hsp70; assay type: binding; set-up: made in house; settings: HeLa cell lysate

T1 sequence (P0DMV8 whole entry): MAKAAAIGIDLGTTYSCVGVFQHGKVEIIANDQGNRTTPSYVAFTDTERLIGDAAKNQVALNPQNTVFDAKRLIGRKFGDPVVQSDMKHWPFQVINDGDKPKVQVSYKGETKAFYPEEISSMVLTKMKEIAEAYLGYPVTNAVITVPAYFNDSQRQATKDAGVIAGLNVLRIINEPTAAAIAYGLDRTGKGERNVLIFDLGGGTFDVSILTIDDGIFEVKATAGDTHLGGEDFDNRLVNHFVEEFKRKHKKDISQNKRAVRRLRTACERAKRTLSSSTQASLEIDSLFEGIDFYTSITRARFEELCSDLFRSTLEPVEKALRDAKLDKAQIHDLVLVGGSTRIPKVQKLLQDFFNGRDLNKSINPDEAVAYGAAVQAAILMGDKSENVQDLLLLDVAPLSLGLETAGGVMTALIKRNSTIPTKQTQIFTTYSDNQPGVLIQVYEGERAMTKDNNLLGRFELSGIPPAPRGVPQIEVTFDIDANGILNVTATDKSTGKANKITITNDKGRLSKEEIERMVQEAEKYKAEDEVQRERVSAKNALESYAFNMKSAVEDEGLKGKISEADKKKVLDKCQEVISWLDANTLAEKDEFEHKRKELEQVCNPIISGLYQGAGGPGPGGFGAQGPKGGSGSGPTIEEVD
T2 sequence (P11142 whole entry): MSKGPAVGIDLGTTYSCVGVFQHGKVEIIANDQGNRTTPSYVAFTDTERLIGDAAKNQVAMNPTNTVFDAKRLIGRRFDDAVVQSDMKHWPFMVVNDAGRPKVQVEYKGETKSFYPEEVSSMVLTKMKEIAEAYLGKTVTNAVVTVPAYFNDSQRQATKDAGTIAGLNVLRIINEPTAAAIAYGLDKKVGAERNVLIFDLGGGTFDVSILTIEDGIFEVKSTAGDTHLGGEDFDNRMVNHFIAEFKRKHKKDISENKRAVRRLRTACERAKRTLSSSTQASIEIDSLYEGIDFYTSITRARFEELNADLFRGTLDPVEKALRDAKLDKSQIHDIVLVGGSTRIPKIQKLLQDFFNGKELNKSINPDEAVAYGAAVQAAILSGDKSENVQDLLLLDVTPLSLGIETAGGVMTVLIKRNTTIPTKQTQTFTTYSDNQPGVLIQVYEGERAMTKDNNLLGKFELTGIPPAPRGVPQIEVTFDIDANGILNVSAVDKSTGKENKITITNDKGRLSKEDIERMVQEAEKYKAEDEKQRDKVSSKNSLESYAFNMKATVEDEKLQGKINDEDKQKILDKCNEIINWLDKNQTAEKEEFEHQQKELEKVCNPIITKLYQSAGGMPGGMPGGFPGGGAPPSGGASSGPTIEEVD

N#Cc1ccc(COC[C@H]2O[C@@H](n3c(NCc4ccc(Cl)c(Cl)c4)nc4c(N)ncnc43)[C@H](O)[C@@H]2O)cc1 [VER-155008]
round cells after acidic pulse (translocation of Ia) [1]: significantly less round cells
enzyme activity of Ia [2]: had no effect
intoxication of the cells with iota toxin [3]: inhibitory effect
Kd (Hsp70 [4]): 0.3 µM
binding of iota toxin to the cells [5]: had no effect

[Br-].[Na+] [NaBr]
apoptosis of HeLa cells, salt with staurosporine (HeLa cells [6]): do not affect

C[C@@H]1C[C@H]2O[C@@H]2/C=C\C=C\C(=O)Cc2c(Cl)c(O)cc(O)c2C(=O)O1 [radicicol]
round cells after acidic pulse (translocation of Ia) [1]: significantly less round cells
enzyme activity of Ia [2]: had no effect
binding of iota toxin to the cells [5]: had no effect

F[B-](F)(F)F.[Na+] [NaBF4]
apoptosis of HeLa cells, salt with staurosporine (HeLa cells [6]): do not affect

c1cc[n+]2cc3ccc(N4CCCC4)cc3cc2c1 [Compound 2]
IC50 (Hsp70 [7]): 127 ± 7 µM
IC50 (Hsc70 [8]): 34 ± 3 µM

CSc1ccc2c[n+]3ccccc3cc2c1 [Compound 3]
EC50 (HT-29): 115 ± 52.4 µM
IC50 (Hsp70 [7]): 1050 ± 53 µM
localization of Hsp70 at 37 °C (HeLa cells [9]): did not alter
localization of Hsp70 at 42 °C (HeLa cells [9]): did not alter
intoxication of Vero cells with iota toxin [3]: no comparable inhibitory effect
compound remaining intact in HeLa cell lysate (HeLa cells [10]): 90%
EC50 (HeLa): 35.8 ± 12.4 µM
IC50 (Hsc70 [8]): 931 ± 47 µM
EC50 (HeLa cells [11]): 13.1 µM
IC50 (HeLa cells [11]): 13.1 µM
EC50 (SH-SY5Y): 70 ± 10.5 µM
cleavage of procaspases 3 and 7 in combination with staurosporine (HeLa cells [6]): did not result in significant procaspase cleavage
procaspase cleavage, compound alone (HeLa cells [6]): did not result in significant procaspase cleavage
EC50 (HEK-293): 22.6 ± 1.3 µM

Nc1ccc2c[n+]3ccccc3cc2c1 [Compound 1]
Hsc70 bound to matrix-coupled 1 (Hsc70 [12]): no detectable amount of Hsc70
accumulation in G2/M phase (HeLa cells [13]): did not accumulate in the G2/M phase
cell cycle phase distribution (HeLa cells [13]): did not result in changes
cells remaining in G2/M (HeLa cells [13]): > 20%
EC50 (HT-29): 71.6 ± 34 µM
IC50 (Hsp70 [7]): 45 ± 4 µM
cytoplasmic vacuolization after heat stress (HeLa cells [9]): strong cytoplasmic vacuolization
localization of Hsp70 at 37 °C (HeLa cells [9]): did not alter
localization of Hsp70 at 42 °C (HeLa cells [9]): dramatic Hsp70 re-distribution into the whole nucleus
subcellular distribution of Hsp70 in thymidine- and nocodazole-treated cells (HeLa cells [9]): did not change
toxin-induced cell-rounding [3]: significantly delayed
compound remaining intact in HeLa cell lysate (HeLa cells [10]): 90%
EC50 (HeLa): 19.5 ± 2.5 µM
Kd (Hsp70 [14]): 5.6 ± 3.1 µM
IC50 (Hsc70 [8]): 363 ± 20 µM
Inhibition of Hsc70 less efficient compared to Hsp70 (Hsc70 [8]; luciferase refolding): 8 fold
ATPase activity of Hsp70 (Hsp70 [15]): remained unaffected
stoichiometry N (Hsp70 [16]): 1.1
TΔSITC (Hsp70 [16]; pH 7.8): 8.3 kcal/mol
binding enthalpy ΔHITC (Hsp70 [16]; pH 7.8): 1.3 ± 0.3 kcal/mol
ΔGITC (Hsp70 [16]; pH 7.8): -7.0 kcal/mol
amount of Hsp70 in HeLa cells (HeLa cells [17]): did not influence
EC50 (HeLa cells [11]): 11.2 µM
IC50 (HeLa cells [11]): 11.2 µM
EC50 (SH-SY5Y): 58.1 ± 4.6 µM
Hsp70 binding to p53-derived peptide regions in the presence of 1 (Hsp70 [18]): abolished
Hsp70 bound to matrix-coupled 1 (Hsp70 [19]): detection of Hsp70
apoptosis induction by staurosporine (HeLa cells [6]): enhanced apoptosis induction
cleavage of procaspases 3 and 7 in combination with staurosporine (HeLa cells [6]): synergistic effect
procaspase cleavage, compound alone (HeLa cells [6]): did not result in significant procaspase cleavage
EC50 (HEK-293): 29.1 ± 1.1 µM
